Consider 15 compounds from PubChem BioAssay (NCI).

“And” between values parts separate entries of the source, which are not always exact repeats. Identical values can stand only once.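 Five concentrations, 48 hours, 96-well plates. GI50: concentration for 50% inhibition of growth. TGI denotes the concentration required for complete inhibition of growth.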

Test systems include MALME-3M melanoma; M14 melanoma; CCRF-CEM leukemia; OVCAR-8 ovarian; COLO 205 colon; OVCAR-3 ovarian; HOP-92 NSCLC; SN12C renal; ACHN renal; EKVX NSCLC.
What all share (experiment): NCI anticancer screen, dose series, 48 h

Take `Cc1cc(C(=O)NC(CCC(=O)O)C(=O)O)sc1CCC1CNc2nc(N)[nH]c(=O)c2C1` (configuration not stated): the TGI in the assay on MALME-3M melanoma, with M14 melanoma, with CCRF-CEM leukemia, in the assay on OVCAR-8 ovarian, in the assay on COLO 205 colon and in the assay with OVCAR-3 ovarian was more than 100 µM each time. Besides, the TGI in the assay with HOP-92 NSCLC, with SN12C renal and in the assay on ACHN renal was more than 100 µM throughout. For the same compound, the GI50 with M14 melanoma was < 0.0192 µM and 0.0501 µM; with CCRF-CEM leukemia it was 0.0123 µM and 0.0273 µM; in the assay on OVCAR-8 ovarian, < 0.0215 µM and 0.0454 µM; with COLO 205 colon, 0.0341 µM and 0.0509 µM; in the assay with OVCAR-3 ovarian, 0.0523 µM and 0.487 µM; in the assay on HOP-92 NSCLC, 0.179 µM and 0.0802 µM. For the same compound, the GI50 with SN12C renal was 0.0315 µM and 0.0482 µM; in the assay on ACHN renal, 0.0133 µM and 0.0435 µM.

As for `Cc1ccc(C2=C(c3ccccc3)C(c3ccccc3)Oc3ccc(C)cc32)cc1` (configuration not stated), the GI50 was 23.1 µM in the assay on MALME-3M melanoma; 1.56 µM in the assay with M14 melanoma; 13.8 µM with CCRF-CEM leukemia; 6.92 µM with OVCAR-8 ovarian; 12.4 µM in the assay with OVCAR-3 ovarian; 11.4 µM with HOP-92 NSCLC. In addition, the GI50 in the assay on SN12C renal is 17.3 µM; in the assay on ACHN renal it was 16.6 µM; in the assay on EKVX NSCLC it was 3.2 µM. Moreover, the TGI amounted to 48.3 µM in the assay with MALME-3M melanoma; 3.05 µM in the assay on M14 melanoma; 39 µM in the assay on CCRF-CEM leukemia; 26.7 µM in the assay with OVCAR-8 ovarian; 32.7 µM with OVCAR-3 ovarian; 28.1 µM in the assay with HOP-92 NSCLC. Moreover, the results for the TGI with SN12C renal, in the assay with ACHN renal and in the assay on EKVX NSCLC were 34.3 µM, 31.2 µM and 12.8 µM, respectively.

In the case of `CCCCN[C@H]1C2C3CC4C5CC(C42)C1(C)C53` (some centres not stated), the TGI in the assay on MALME-3M melanoma, with M14 melanoma, in the assay with CCRF-CEM leukemia, in the assay on COLO 205 colon, in the assay with OVCAR-3 ovarian and in the assay with HOP-92 NSCLC was more than 100 µM in each case. Further, the TGI in the assay on SN12C renal, in the assay on ACHN renal and in the assay with EKVX NSCLC was more than 100 µM each time.

Turning to `O=S1(=O)CCCS(=O)(=O)C(c2ccccc2)=C1c1ccccc1`, the TGI with MALME-3M melanoma was more than 100 µM; in the assay with M14 melanoma, more than 100 µM; with CCRF-CEM leukemia it was more than 100 µM; in the assay on OVCAR-8 ovarian it was more than 100 µM; in the assay on OVCAR-3 ovarian it was more than 100 µM; in the assay with HOP-92 NSCLC, 85.3 µM. Besides, the TGI with SN12C renal, in the assay with ACHN renal and in the assay on EKVX NSCLC was more than 100 µM in each case.

Take `C=CC/C(=C\COP(=O)(OCc1ccc([N+](=O)[O-])o1)N(C)CCCCCl)CC/C=C(\C)CCC=C(C)C` (configuration not stated): the GI50 with M14 melanoma is 4.04 µM; with CCRF-CEM leukemia, 0.0483 µM; in the assay on OVCAR-8 ovarian it was 12.6 µM; in the assay with COLO 205 colon, 20.4 µM; with HOP-92 NSCLC, 14.5 µM; in the assay on SN12C renal it was 13.6 µM. The GI50 in the assay on ACHN renal is 15.5 µM; in the assay on EKVX NSCLC, 18.9 µM. In addition, the TGI was 18.2 µM in the assay on M14 melanoma; 15.9 µM in the assay with CCRF-CEM leukemia; 25.1 µM in the assay on OVCAR-8 ovarian; 43.2 µM in the assay on COLO 205 colon; 27.6 µM in the assay on HOP-92 NSCLC; 26.4 µM in the assay on SN12C renal. Also, the figures for the TGI in the assay on ACHN renal and with EKVX NSCLC were 30.2 µM and 35.7 µM, respectively.

In the case of `OCCNCCCOc1ccc2ncnc(Nc3ccc(Oc4cccc(C(F)(F)F)c4)c(Cl)c3)c2c1`, the GI50 in the assay with MALME-3M melanoma is 1.66 µM; in the assay on CCRF-CEM leukemia, 1.66 µM; in the assay on OVCAR-8 ovarian, 2.24 µM; with OVCAR-3 ovarian, 1.5 µM; in the assay with HOP-92 NSCLC it was 1.05 µM; in the assay with SN12C renal it was 1.43 µM. In addition, the results for the GI50 in the assay with ACHN renal and in the assay with EKVX NSCLC were 1.09 µM and 1.24 µM, respectively. In addition, the TGI turned out to be 3.24 µM with MALME-3M melanoma; 4.42 µM in the assay with CCRF-CEM leukemia; 5.83 µM in the assay with OVCAR-8 ovarian; 2.92 µM with OVCAR-3 ovarian; 2.37 µM with HOP-92 NSCLC; 2.83 µM in the assay on SN12C renal. The TGI worked out at 2.28 µM in the assay on ACHN renal and 2.76 µM in the assay on EKVX NSCLC.

Regarding `Cc1[nH]nc2c1N=C(c1ccccc1F)c1cc(C(N)=O)ccc1N2`, the GI50 with MALME-3M melanoma is 18.3 µM; with M14 melanoma, 7.86 µM; in the assay on CCRF-CEM leukemia, 1.15 µM; in the assay with OVCAR-8 ovarian, 5.77 µM; with COLO 205 colon, 2.3 µM; with OVCAR-3 ovarian, 2.14 µM. Besides, the GI50 with HOP-92 NSCLC was 7.12 µM; in the assay with SN12C renal it was 4.2 µM; in the assay with ACHN renal it was 3.3 µM. Further, the TGI was more than 25 µM with MALME-3M melanoma; more than 25 µM in the assay on M14 melanoma; more than 14.9 µM in the assay with CCRF-CEM leukemia; more than 25 µM in the assay with OVCAR-8 ovarian; 6.61 µM with COLO 205 colon; more than 20.1 µM in the assay on OVCAR-3 ovarian. For the same compound, the TGI is more than 25 µM in the assay with HOP-92 NSCLC, more than 25 µM in the assay with SN12C renal and more than 22.9 µM in the assay on ACHN renal.

Regarding `CN(C)CC(C(=O)Cc1ccccc1)c1ccccc1` (configuration not stated), the GI50 in the assay with MALME-3M melanoma is 1.74 µM; in the assay with M14 melanoma, 2.34 µM; in the assay on OVCAR-8 ovarian, 6.75 µM; in the assay on COLO 205 colon, 2.3 µM; with OVCAR-3 ovarian, 1.9 µM; with HOP-92 NSCLC, 2.78 µM. The GI50 in the assay with SN12C renal is 3.04 µM; in the assay with ACHN renal, 1.97 µM; in the assay on EKVX NSCLC it was 17 µM. For the same compound, the TGI was determined as 3.89 µM with MALME-3M melanoma; 4.97 µM with M14 melanoma; 23.1 µM in the assay on OVCAR-8 ovarian; 5.04 µM in the assay with COLO 205 colon; 3.48 µM with OVCAR-3 ovarian; 7.5 µM in the assay with HOP-92 NSCLC. The TGI is 11 µM in the assay with SN12C renal, 3.53 µM in the assay with ACHN renal and 40.5 µM in the assay with EKVX NSCLC.

For the compound `COc1cccc2c1C(=O)c1c(O)c3c(c(O)c1C2=O)C[C@@](O)(C(=O)CO)CC3OC1CC(O)C(O)C(C)O1` (some centres not stated), the TGI with MALME-3M melanoma was 0.806 µM; in the assay on M14 melanoma, 1.88 µM; in the assay on CCRF-CEM leukemia it was more than 35.4 µM; in the assay with OVCAR-8 ovarian it was 9.78 µM; in the assay with OVCAR-3 ovarian it was 11.3 µM; in the assay with HOP-92 NSCLC, 2.26 µM. The TGI was 8.19 µM in the assay on SN12C renal, 0.598 µM in the assay on ACHN renal and 7.49 µM in the assay on EKVX NSCLC.

As for `C/C(=N\NC(=S)N1CCCCCCCCCCCC1)c1ccccn1`, the TGI in the assay on MALME-3M melanoma amounted to 1.08 µM; with M14 melanoma, 2.15 µM; with CCRF-CEM leukemia it was 1.76 µM; in the assay on OVCAR-8 ovarian, 1.9 µM; in the assay on OVCAR-3 ovarian, 1.48 µM; in the assay with HOP-92 NSCLC, 0.42 µM. Moreover, the TGI in the assay on SN12C renal came to 2.19 µM; with ACHN renal it was 1.41 µM; with EKVX NSCLC, 0.432 µM.

For the compound `Cc1ccn2c(CCc3nnc4cc(C)ccn34)nnc2c1`, the TGI with MALME-3M melanoma, with M14 melanoma, in the assay with OVCAR-8 ovarian, in the assay on COLO 205 colon, with OVCAR-3 ovarian and with HOP-92 NSCLC was more than 100 µM throughout. For the same compound, the TGI in the assay with SN12C renal, in the assay with ACHN renal and with EKVX NSCLC was more than 100 µM each time.

Consider `CN1CCN(c2nc(NCCCNc3ccnc4cc(Cl)ccc34)c3ccccc3n2)CC1`, for which the GI50 in the assay with MALME-3M melanoma is 1.98 µM; in the assay with M14 melanoma, 1.89 µM; with OVCAR-8 ovarian, 5.92 µM; in the assay with COLO 205 colon, 1.86 µM; in the assay on OVCAR-3 ovarian, 6.93 µM; in the assay with HOP-92 NSCLC it was 2.07 µM. In addition, the results for the GI50 in the assay on SN12C renal, in the assay with ACHN renal and with EKVX NSCLC were 4.97 µM, 3.92 µM and 11.4 µM, respectively. For the same compound, the TGI in the assay on MALME-3M melanoma amounted to 3.84 µM; in the assay on M14 melanoma it was 3.77 µM; with OVCAR-8 ovarian, 20.7 µM; in the assay on COLO 205 colon, 4.51 µM; in the assay with OVCAR-3 ovarian it was 21.6 µM; with HOP-92 NSCLC, 6.43 µM. The TGI in the assay with SN12C renal is 18 µM; in the assay with ACHN renal it was 13.6 µM; in the assay with EKVX NSCLC, 25.3 µM.

`C=C1C2CC(OC(C)=O)C3(C)C(c4ccoc4)OC(=O)[C@@H](O)[C@]13OC1C[C@H](OC(C)=O)C(C)(C)[C@H](CC(=O)OC)[C@]12C` (some centres not stated): the TGI in the assay with M14 melanoma, in the assay on CCRF-CEM leukemia, with OVCAR-8 ovarian, with COLO 205 colon, with OVCAR-3 ovarian and with HOP-92 NSCLC was more than 100 µM throughout. The TGI with SN12C renal, in the assay with ACHN renal and in the assay on EKVX NSCLC was more than 100 µM each time.

As to `C=C(CC(=O)O)C(=O)O` (tested in a mixture with another compound), the GI50 in the assay with MALME-3M melanoma, in the assay with M14 melanoma, in the assay with OVCAR-8 ovarian, in the assay on COLO 205 colon, with OVCAR-3 ovarian and in the assay on HOP-92 NSCLC was more than 50 µg/mL in each case. The results for the GI50 in the assay with SN12C renal, in the assay on ACHN renal and with EKVX NSCLC were more than 50 µg/mL, more than 50 µg/mL and 40.6 µg/mL, respectively. In addition, the TGI in the assay on MALME-3M melanoma, in the assay on M14 melanoma, with OVCAR-8 ovarian, with COLO 205 colon, in the assay on OVCAR-3 ovarian and with HOP-92 NSCLC was more than 50 µg/mL each time. In addition, the TGI with SN12C renal, with ACHN renal and in the assay on EKVX NSCLC was more than 50 µg/mL each time.

Turning to `COc1ccc2c(c1)[n+]([O-])c(-c1ccc(C)cc1)c(N)[n+]2[O-]`, the TGI with MALME-3M melanoma was more than 100 µM; in the assay with M14 melanoma, more than 100 µM; in the assay with OVCAR-8 ovarian it was more than 100 µM; in the assay on COLO 205 colon, 36.4 µM; in the assay with OVCAR-3 ovarian, more than 100 µM; in the assay on HOP-92 NSCLC it was more than 100 µM. Also, the TGI with SN12C renal, with ACHN renal and with EKVX NSCLC was more than 100 µM in each case.
